Source: patent US20200148635A1 (priority 2017, published 2020)

Assays:
Alternaria solani = experiment: In vitro test Alternaria solani (early blight of tomato/potato), radial growth on Potato Dextrose Agar; assay type: cell-based; conditions: 168 h, agar plate, 25° C., seven days, read-out: control compared to the untreated check
Method: (§1) Alternaria solani (early blight of tomato/potato): Compounds were dissolved in 0.3% DMSO and then added to Potato Dextrose Agar medium just prior to dispensing it into Petri dishes. 5 mL medium with compound in the desired concentration was dispensed into 60 mm sterile Petri-plates. After solidification each plate was seeded with 5 mm size mycelial disc taken form periphery of actively growing virulent culture plate. Plates were incubated in growth chambers at 25° C. temperature and 60% relative humidity for seven days and radial growth was measured.

Rhizoctonia solani = experiment: In vitro test Rhizoctonia solani (rice sheath blight/potato black scurf), radial growth on Potato Dextrose Agar; assay type: cell-based; conditions: 168 h, agar plate, 25° C., seven days, read-out: control compared to the untreated check
Method: Rhizoctonia solani (Rice Sheath Blight/Potato Black Scurf):
as §1, with “Compounds” for “Alternaria solani (early blight of tomato/potato): Compounds”

Septoria lycopersici = experiment: In vitro test Septoria lycopersici (leaf spot of tomato), radial growth on Potato Dextrose Agar; assay type: cell-based; conditions: 168 h, agar plate, 25° C., seven days, read-out: control compared to the untreated check
Method: Septoria lycopersici (Leaf Spot of Tomato):
as §1, with “Compounds” for “Alternaria solani (early blight of tomato/potato): Compounds”, “70%” for “60%”

Pyricularia oryzae = experiment: microbe, parasite or virus in culture; assay type: cell-based; conditions: 168 h, read-out: control compared to the untreated check
Phakopsora pachyrhizi = experiment: Greenhouse Phakopsora pachyrhizi test in soybean, preventive; assay type: in vivo; conditions: preventive spray on soybean plants, inoculated one day after treatment with Phakopsora pachyrhizi, read-out: control compared to the untreated check
Method: Phakopsora pachyrhizi Test in Soybean
Compounds were dissolved in 2% DMSO/Acetone and then mixed with water to the calibrated spray volume of 50 mL and poured into the spray bottles for further applications.
To test the preventive activity of compounds, healthy young soybean plants raised in the greenhouse were sprayed with active compound preparation at the stated application rates inside the spray cabinets using hallowcone nozzles. One day after treatment, the plants were inoculated with spore suspension containing 2.1×10^6 Phakopsora pachyrhizi inoculum. The inoculated plants were then kept in greenhouse chamber at 25° C. temperature and 90% relative humidity for disease expression.
A visual assessment of compound's performance was carried out by rating the disease severity (0-100% scale) on treated plants on 3, 7, 10 and 15 days after application. Efficacy (% control) of the compounds was calculated by comparing the disease rating in the treatment with the one of the untreated control. The sprayed plants were also assessed for compound's plant compatibility by recording symptoms like necrosis, chlorosis and stunting.

Row | SMILES | inhibition of growth at 300 ppm (Alternaria solani) | inhibition of growth at 300 ppm (Pyricularia oryzae) | other results
1 | CCN(C)C=Nc1cc(C)c(S(C)(=O)=Nc2ccccc2)cc1Cl (stereo not shown) [Compound 17] | > 70% | – | inhibition of growth at 300 ppm (Rhizoctonia solani): > 70%; inhibition of growth at 300 ppm (Septoria lycopersici): > 70%
2 | CCN(C)C=Nc1cc(C)c(Oc2cccc(S(C)(=O)=NCC3CC3)c2)cc1Cl (stereo not shown) [Compound 18] | – | > 70% | –
3 | CCN=S(=O)(CC1CC1)c1cccc(Oc2cc(Cl)c(N=CN(C)CC)cc2C)c1 (stereo not shown) [Compound 20] | – | – | inhibition of growth at 300 ppm (Septoria lycopersici): > 70%
4 | CCN(C)C=Nc1cc(C)c(S(C)(=O)=Nc2cccc(OC)c2)cc1Cl (stereo not shown) [Compound 24] | – | > 70% | –
5 | CCN(C)C=Nc1cc(C)c(S(C)(=O)=NC(=O)c2ccccc2)cc1Cl (stereo not shown) [Compound 28] | – | > 70% | –
6 | CCN(C)C=Nc1cc(C)c(S(C)(=O)=NC(=O)c2ccc(F)c(Cl)c2)cc1Cl (stereo not shown) [Compound 29] | – | > 70% | –
7 | CCN(C)C=Nc1cc(C)c(S(C)(=O)=NC(=O)c2cccc(C(F)(F)F)c2)cc1Cl (stereo not shown) [Compound 30] | – | > 70% | –
8 | CCN(C)C=Nc1cc(C)c(S(C)(=O)=NC(=O)c2cc(C(F)(F)F)cc(C(F)(F)F)c2)cc1Cl (stereo not shown) [Compound 31] | – | > 70% | pest or weed control at 500 ppm (Phakopsora pachyrhizi): > 70%
9 | CCN(C)C=Nc1cc(C)c(S(C)(=O)=NC(=O)c2ccc(F)c(F)c2)cc1Cl (stereo not shown) [Compound 34] | – | > 70% | pest or weed control at 500 ppm (Phakopsora pachyrhizi): > 70%
10 | CCN(C)C=Nc1cc(C)c(S(C)(=O)=Nc2cccc(C(F)(F)F)c2)cc1Cl (stereo not shown) [Compound 36] | – | > 70% | –
11 | CCN(C)C=Nc1cc(C)c(S(C)(=O)=NC(=O)c2cccc(Cl)c2)cc1Cl (stereo not shown) [Compound 40] | – | > 70% | –
12 | CCN(C)C=Nc1cc(C)c(S(C)(=O)=Nc2ccc(Cl)c(C(F)(F)F)c2)cc1Cl (stereo not shown) [Compound 41] | – | > 70% | –
13 | CCN(C)C=Nc1cc(C)c(S(C)(=O)=Nc2cccc(S(F)(F)(F)(F)F)c2)cc1Cl (stereo not shown) [Compound 45] | > 70% | – | inhibition of growth at 300 ppm (Septoria lycopersici): > 70%
14 | CCN(C)C=Nc1cc(Br)c(N=S(C)(=O)c2ccccc2)nc1C (stereo not shown) [Compound 47] | – | > 70% | pest or weed control at 500 ppm (Phakopsora pachyrhizi): > 70%
15 | CCN(C)C=Nc1cc(C)c(S(=O)(CC)=NC(=O)c2cccc(C(F)(F)F)c2)cc1Cl (stereo not shown) [Compound 51] | > 70% | > 70% | –
16 | CCN(C)C=Nc1cc(C)c(S(=O)(CC)=NC(=O)c2cccc(F)c2)cc1Cl (stereo not shown) [Compound 52] | > 70% | – | –
17 | CCN(C)C=Nc1cc(C)c(S(=O)(CC)=NC(=O)c2cccc(OC(F)(F)F)c2)cc1Cl (stereo not shown) [Compound 53] | > 70% | > 70% | –
18 | CCN=S(C)(=O)c1cccc(Oc2cc(C)c(N=CN(C)CC)cc2C)c1 (stereo not shown) [Compound 54] | – | > 70% | –
19 | CCN(C)C=Nc1cc(C)c(N=S(=O)(CCC(C)C)c2ccccc2)cc1C (stereo not shown) [Compound 55] | – | > 70% | –
20 | CCN(C)C=Nc1cc(Br)c(N=S(C)(=O)c2ccc(Br)cc2)nc1C (stereo not shown) [Compound 56] | – | > 70% | –
21 | CCN(C)C=Nc1cc(Br)c(N=S(=O)(CCC(C)C)c2ccccc2)nc1C (stereo not shown) [Compound 57] | – | > 70% | –
22 | CCN(C)C=Nc1cc(C)c(S(=O)(CC)=NC(=O)c2ccccc2)cc1Cl (stereo not shown) [Compound 58] | – | > 70% | –
23 | CCN(C)C=Nc1cc(C)c(S(=O)(CC)=NC(=O)c2nn(C)cc2C(F)F)cc1Cl (stereo not shown) [Compound 59] | – | > 70% | –
24 | CCN(C)C=Nc1cc(C)c(S(=O)(CC)=Nc2cccc(C(F)(F)F)c2)cc1Cl (stereo not shown) [Compound 60] | – | > 70% | pest or weed control at 500 ppm (Phakopsora pachyrhizi): > 70%
25 | CCN(C)C=Nc1cc(C)c(S(=O)(CC)=Nc2cccc(OC(F)(F)F)c2)cc1Cl (stereo not shown) [Compound 61] | > 70% | – | pest or weed control at 500 ppm (Phakopsora pachyrhizi): > 70%; inhibition of growth at 300 ppm (Septoria lycopersici): > 70%
26 | CCN(C)C=Nc1cc(C)c(S(=O)(CC)=Nc2cc(F)c(F)c(F)c2)cc1Cl (stereo not shown) [Compound 62] | > 70% | > 70% | –
27 | CCN(C)C=Nc1cc(C)c(S(=O)(CC)=Nc2ccccc2)cc1Cl (stereo not shown) [Compound 64] | > 70% | – | –

Row | SMILES | inhibition of growth at 300 ppm (Alternaria solani) | inhibition of growth at 300 ppm (Pyricularia oryzae) | other results
28 | CCN(C)C=Nc1cc(C)c(N=S(=O)(c2ccccc2)C(C)C)cc1C (stereo not shown) [Compound 66] | > 70% | – | inhibition of growth at 300 ppm (Rhizoctonia solani): > 70%
29 | CCN(C)C=Nc1cc(Br)c(Oc2cccc(S(C)(=O)=NCC3CCC3)c2)nc1C (stereo not shown) [Compound 69] | – | > 70% | –
30 | CCN(C)C=Nc1cc(C)c(Oc2cccc(S(C)(=O)=NCC3CCC3)c2)cc1C (stereo not shown) [Compound 71] | – | > 70% | –
31 | CCN(C)C=Nc1cc(C)c(S(=O)(CC(C)C)=NC(=O)c2ccc(F)c(Cl)c2)cc1Cl (stereo not shown) [Compound 72] | – | > 70% | –
32 | CCN(C)C=Nc1cc(C)c(N=S(=O)(c2cccc(OC)c2)C(C)C)cc1C (stereo not shown) [Compound 75] | – | > 70% | pest or weed control at 500 ppm (Phakopsora pachyrhizi): > 70%
33 | CCN(C)C=Nc1cc(Br)c(N=S(=O)(c2cccc(OC)c2)C(C)C)nc1C (stereo not shown) [Compound 78] | > 70% | – | –
34 | CCN(C)C=Nc1cc(C)c(S(C)(=O)=NCc2cccc(OC(F)(F)F)c2)cc1Cl (stereo not shown) [Compound 92] | > 70% | – | inhibition of growth at 300 ppm (Rhizoctonia solani): > 70%; inhibition of growth at 300 ppm (Septoria lycopersici): > 70%
35 | CCN(C)C=Nc1cc(C)c(S(=O)(CC(C)C)=NCc2ccc(F)c(Cl)c2)cc1Cl (stereo not shown) [Compound 100] | – | > 70% | –
36 | CCN(C)C=Nc1cc(C)c(S(=O)(CC(C)C)=NCc2cccc(Cl)c2)cc1Cl (stereo not shown) [Compound 101] | > 70% | – | pest or weed control at 500 ppm (Phakopsora pachyrhizi): > 70%
37 | CCN(C)C=Nc1cc(C)c(S(=O)(CC(C)C)=NCc2cccc(C(F)(F)F)c2)cc1Cl (stereo not shown) [Compound 102] | > 70% | > 70% | –
38 | CCN(C)C=Nc1cc(Br)c(N=S(=O)(CC2CC2)c2cccc(F)c2)nc1C (stereo not shown) [Compound 106] | – | > 70% | pest or weed control at 500 ppm (Phakopsora pachyrhizi): > 70%
39 | CCN(C)C=Nc1cc(C)c(S(=O)(CC(C)C)=Nc2ccc(N(C)C)cc2)cc1Cl (stereo not shown) [Compound 110] | – | > 70% | –
40 | CCN(C)C=Nc1cc(C)c(S(=O)(CC(C)C)=Nc2ccc(OC)cc2)cc1Cl (stereo not shown) [Compound 111] | – | > 70% | –
41 | CCN(C)C=Nc1cc(C)c(S(=O)(CC(C)C)=Nc2ccc(N3CCOCC3)cc2)cc1Cl (stereo not shown) [Compound 113] | > 70% | – | inhibition of growth at 300 ppm (Rhizoctonia solani): > 70%; inhibition of growth at 300 ppm (Septoria lycopersici): > 70%
42 | CCN(C)C=Nc1cc(C)c(S(=O)(CC(C)C)=Nc2ccc(OC)c(OC)c2)cc1Cl (stereo not shown) [Compound 124] | > 70% | – | inhibition of growth at 300 ppm (Rhizoctonia solani): > 70%; inhibition of growth at 300 ppm (Septoria lycopersici): > 70%
43 | CCN(C)C=Nc1cc(C)c(Oc2cccc(S(C)(=O)=NCC#N)c2)cc1C (stereo not shown) [Compound 125] | > 70% | > 70% | –
44 | CCN(C)C=Nc1cc(C)c(Oc2ccc(S(C)(=O)=NC#N)cc2)cc1Cl (stereo not shown) [Compound 129] | – | – | pest or weed control at 500 ppm (Phakopsora pachyrhizi): > 70%
45 | CCN=S(C)(=O)c1ccc(Cc2cc(C)c(N=CN(C)CC)cc2C)cc1 (stereo not shown) [Compound 130] | > 70% | – | –
46 | CCN(C)C=Nc1cc(C)c(Cc2ccc(S(C)(=O)=NCC3CC3)cc2)cc1C (stereo not shown) [Compound 131] | > 70% | – | –
47 | CCN(C)C=Nc1cc(C)c(Oc2ccc(S(C)(=O)=NC(F)(F)F)cc2)cc1Cl (stereo not shown) [Compound 134] | > 70% | – | inhibition of growth at 300 ppm (Rhizoctonia solani): > 70%; inhibition of growth at 300 ppm (Septoria lycopersici): > 70%
48 | CCN(C)C=Nc1cc(C)c(Cc2ccccc2S(C)(=N)=O)cc1C (stereo not shown) [Compound 136] | – | > 70% | –
49 | CCN(C)C=Nc1cc(C)c(Cc2ccccc2S(C)(=O)=NC)cc1C (stereo not shown) [Compound 137] | – | > 70% | –
50 | CCN(C)C=Nc1cc(C)c(Cc2ccccc2S(C)(=O)=NCC2CC2)cc1C (stereo not shown) [Compound 138] | – | > 70% | –
51 | CCN(C)C=Nc1cc(C)c(Nc2ccc(S(C)(=O)=NCC3CC3)cc2)cc1C (stereo not shown) [Compound 139] | > 70% | – | inhibition of growth at 300 ppm (Septoria lycopersici): > 70%
52 | CCN(C)C=Nc1cc(C)c(Oc2cccc(S(=N)(=O)C(F)(F)F)c2)cc1C (stereo not shown) [Compound 148] | – | > 70% | –
53 | CCN(C)C=Nc1cc(C)c(Oc2cccc(S(=O)(=NC)C(F)(F)F)c2)cc1C (stereo not shown) [Compound 151] | – | > 70% | –
54 | CCN(C)C=Nc1cc(C)c(Oc2ccccc2S(=O)(=NCC2CC2)C(F)(F)F)cc1Cl (stereo not shown) [Compound 152] | – | > 70% | pest or weed control at 500 ppm (Phakopsora pachyrhizi): > 70%
